Measured values from patent US7803837B2, “4-oxo-4,5-dihydro-furan-2-carboxylic acid derivatives and methods of treatment of metabolic-related disorders thereof” (Arena Pharmaceuticals, Inc., priority 2003, dated 2010).

Tested on: free fatty acid production
Test: Inhibition of free fatty-acid production, in vivo, in catheterized male rats (NEFA assay on serum)
Design: species or system Sprague-Daly Rats
Conditions: food deprived catheterized rats, IP administration at various concentrations, FIG. 2A/2B
Protocol: Inhibition of Free Fatty-Acid Production, In Vivo, in Catheterized Male Sprague-Daly Rats
Non-esterified free-fatty acid (NEFA) assays were done on serum derived from live, freely moving rats. Jugular vein catheters were surgically implanted into the jugular veins and the animals were allowed to recover at least 48 hr post surgery. Food was removed from the animals approximately 16 hours prior to the assay. A draw of ˜200 μl blood was pulled from the catheter and represents the baseline NEFA serum sample. Drug was administered intra-peritoneally (IP) at various concentrations to individual rats and then ˜200 μl blood draws were pulled from the catheter at the indicated time points for further NEFA analysis. NEFA assays were performed according to the manufacturer's specifications (Wako Chemicals, USA; NEFA C) and free fatty acid concentrations were determined via regression analysis of a known standard curve (range of known free fatty acids). Data was analyzed using Excel and PrismGraph.

| Compound | inhibition of plasma free fatty acid (NEFA) |
| --- | --- |
| O=C(O)c1cccnc1 [nicotinic acid, pyridine-3-carboxylic acid] | inhibiting plasma free fatty acid concentrations |
| CC1(C2=CCCCC2)OC(C(=O)O)=CC1=O (racemic) [Compound 1, 5-Cyclohex-1-enyl-5-methyl-4-oxo-4,5-dihydro-furan-2-carboxylic acid] | able to inhibit free fatty acid production to the same extent, at similar doses and within the same time-frame as compared to nicotinic acid |
